Assay: G1T38-02: G1T38-related TEAEs by CTCAE grade; for G1T38-related TEAE: Alopecia: test concentration or dose not given here; for G1T38-related TEAE: Anaemia: test concentration or dose not given here; for G1T38-related TEAE: Blood bilirubin increased: test concentration or dose not given here; for G1T38-related TEAE: Blood creatinine increased: test concentration or dose not given here; for G1T38-related TEAE: Blood urea increased: test concentration or dose not given here; for G1T38-related TEAE: Diarrhoea: test concentration or dose not given here; for G1T38-related TEAE: Dry eye: test concentration or dose not given here; for G1T38-related TEAE: Dry mouth: test concentration or dose not given here; for G1T38-related TEAE: Haematuria: test concentration or dose not given here; for G1T38-related TEAE: Lacrimation increased: test concentration or dose not given here; for G1T38-related TEAE: Monocyte count decreased: test concentration or dose not given here; for G1T38-related TEAE: Nausea: test concentration or dose not given here; for G1T38-related TEAE: Neutropenia: test concentration or dose not given here; for G1T38-related TEAE: Platelet count decreased: test concentration or dose not given here; for G1T38-related TEAE: Stomatitis: test concentration or dose not given here; for G1T38-related TEAE: Thombocytopenia: test concentration or dose not given here
Assay type: in vivo, Humans
Conditions: for G1T38-related TEAE: Haematuria / G1T38-related TEAE: Lacrimation increased / G1T38-related TEAE: Leukopenia / G1T38-related TEAE: Monocyte count decreased / G1T38-related TEAE: Nausea / G1T38-related TEAE: Neutropenia / G1T38-related TEAE: Neutrophil count deceased / G1T38-related TEAE: Platelet count decreased / G1T38-related TEAE: Stomatitis / G1T38-related TEAE: Thombocytopenia / G1T38-related TEAE: Vomiting / G1T38-related TEAE: White blood cell count decreased / Number (%) of patients with any G1T38-related TEAEs / G1T38-related TEAE: Alopecia / G1T38-related TEAE: Anaemia / G1T38-related TEAE: Blood bilirubin increased / G1T38-related TEAE: Blood creatinine increased / G1T38-related TEAE: Blood lactate dehydrogenase increased / G1T38-related TEAE: Blood urea increased / G1T38-related TEAE: Diarrhoea / G1T38-related TEAE: Dry eye / G1T38-related TEAE: Dry mouth: N = 18

CC(C)N1CCN(c2ccc(Nc3ncc4cc5n(c4n3)C3(CCCCC3)CNC5=O)nc2)CC1 [Compound IV]
G1T38-related TEAE: Haematuria (Grade 4): 0 n (%) | G1T38-related TEAE: Lacrimation increased (Grade 4): 0 n (%) | G1T38-related TEAE: Leukopenia (Grade 4): 0 n (%) | G1T38-related TEAE: Monocyte count decreased (Grade 4): 0 n (%) | G1T38-related TEAE: Nausea (Grade 4): 0 n (%) | G1T38-related TEAE: Neutropenia (Grade 4): 1 (5.0) n (%) | G1T38-related TEAE: Neutrophil count deceased (Grade 4): 0 n (%) | G1T38-related TEAE: Platelet count decreased (Grade 4): 0 n (%) | G1T38-related TEAE: Stomatitis (Grade 4): 0 n (%) | G1T38-related TEAE: Thombocytopenia (Grade 4): 0 n (%) | G1T38-related TEAE: Vomiting (Grade 4): 0 n (%) | G1T38-related TEAE: White blood cell count decreased (Grade 4): 0 n (%) | Number (%) of patients with any G1T38-related TEAEs (Grade 4): 1 (5.6) n (%) | G1T38-related TEAE: Alopecia (Grade 5): 0 n (%) | G1T38-related TEAE: Anaemia (Grade 5): 0 n (%) | G1T38-related TEAE: Blood bilirubin increased (Grade 5): 0 n (%) | G1T38-related TEAE: Blood creatinine increased (Grade 5): 0 n (%) | G1T38-related TEAE: Blood lactate dehydrogenase increased (Grade 5): 0 n (%) | G1T38-related TEAE: Blood urea increased (Grade 5): 0 n (%) | G1T38-related TEAE: Diarrhoea (Grade 5): 0 n (%) | G1T38-related TEAE: Dry eye (Grade 5): 0 n (%) | G1T38-related TEAE: Dry mouth (Grade 5): 0 n (%) | G1T38-related TEAE: Haematuria (Grade 5): 0 n (%) | G1T38-related TEAE: Lacrimation increased (Grade 5): 0 n (%) | G1T38-related TEAE: Leukopenia (Grade 5): 0 n (%) | G1T38-related TEAE: Monocyte count decreased (Grade 5): 0 n (%) | G1T38-related TEAE: Nausea (Grade 5): 0 n (%) | G1T38-related TEAE: Neutropenia (Grade 5): 0 n (%) | G1T38-related TEAE: Neutrophil count deceased (Grade 5): 0 n (%) | G1T38-related TEAE: Platelet count decreased (Grade 5): 0 n (%) | G1T38-related TEAE: Stomatitis (Grade 5): 0 n (%) | G1T38-related TEAE: Thombocytopenia (Grade 5): 0 n (%) | G1T38-related TEAE: Vomiting (Grade 5): 0 n (%) | G1T38-related TEAE: White blood cell count decreased (Grade 5): 0 n (%) | Number (%) of patients with any G1T38-related TEAEs (Grade 5): 0 n (%) | G1T38-related TEAE: Alopecia (Overall): 1 (5.6) n (%) | G1T38-related TEAE: Anaemia (Overall): 6 (33.3) n (%) | G1T38-related TEAE: Blood bilirubin increased (Overall): 1 (5.6) n (%) | G1T38-related TEAE: Blood creatinine increased (Overall): 2 (11.1) n (%) | G1T38-related TEAE: Blood lactate dehydrogenase increased (Overall): 1 (5.6) n (%) | G1T38-related TEAE: Blood urea increased (Overall): 1 (5.6) n (%) | G1T38-related TEAE: Diarrhoea (Overall): 5 (27.8) n (%) | G1T38-related TEAE: Dry eye (Overall): 1 (5.6) n (%) | G1T38-related TEAE: Dry mouth (Overall): 1 (5.6) n (%) | G1T38-related TEAE: Haematuria (Overall): 3 (16.7) n (%) | G1T38-related TEAE: Lacrimation increased (Overall): 1 (5.6) n (%) | G1T38-related TEAE: Leukopenia (Overall): 1 (5.6) n (%) | G1T38-related TEAE: Monocyte count decreased (Overall): 1 (5.6) n (%) | G1T38-related TEAE: Nausea (Overall): 5 (27.8) n (%) | G1T38-related TEAE: Neutropenia (Overall): 5 (27.8) n (%) | G1T38-related TEAE: Neutrophil count deceased (Overall): 9 (50.0) n (%) | G1T38-related TEAE: Platelet count decreased (Overall): 2 (11.1) n (%) | G1T38-related TEAE: Stomatitis (Overall): 1 (5.6) n (%) | G1T38-related TEAE: Thombocytopenia (Overall): 1 (5.6) n (%) | G1T38-related TEAE: Vomiting (Overall): 3 (16.7) n (%) | G1T38-related TEAE: White blood cell count decreased (Overall): 7 (38.9) n (%) | Number (%) of patients with any G1T38-related TEAEs (Overall): 15 (83.3) n (%) | more severe EGFR-TKI-related AEs (nonclinical and clinical data to date (see Example 6)): none of the more severe EGFR-TKI-related AEs have been observed

— patent publication US11395821B2, “Treatment of EGFR-driven cancer with fewer side effects” (G1 Therapeutics, Inc., priority 2017, dated 2022)
